These results are taken from US6380193B1, “Fused tricyclic compounds, methods and compositions for inhibiting PARP activity” (Guilford Pharmaceuticals Inc., priority 1998, dated 2002).

One series relates to C57/BL male mice. As to the kind of experiment: Septic shock assay (LPS plus galactosamine challenge). Particulars: 60, 20, 6 and 2 mg/kg daily IP for three days, first dose 30 minutes after challenge. The format is in vivo, mouse. As to the method:
Groups of 10 C57/BL male mice weighing 18 to 20 g were administered a test compound, 1-carboxynaphthalene-1-carboxamide at the doses of 60, 20, 6 and 2 mg/kg, daily, by intraperitoneal (IP) injection for three consecutive days. Each animal was first challenged with lipopolysaccharide (LPS, from E. Coli, LD100 of 20 mg/animal IV) plus galactosamine (20 mg/animal IV). The first dose of test compound in a suitable vehicle was given 30 minutes after challenge, and the second and third doses were given 24 hours later on day 2 and day 3 respectively, with only the surviving animals receiving the second or third dose of the test compound. Mortality was recorded every 12 hours after challenge for the three-day testing period. 1-Carboxy-naphthalene-1-carboxamide provided a protection against mortality from septic shock of about 40%.

Another series concerns colitis in rats. As to conditions: rat, in vivo; cited from earlier work.
Series [1] has as its system human fibroblast cells lines (W138 or BJ cells). As to the kind of experiment: Proliferative capacity and lifespan of cells. The format is cell-based. Here is the method:
At the time of subdivision, the media is aspirated, and the cells rinsed with phosphate buffer saline (PBS) and then trypsinized. The cells are counted with a Coulter counter and plated at a density of 10^5 cells per cm^2 in 6-well tissue culture plates in DMEM/199 medium supplemented with 10% bovine calf serum and varying amounts ([…]: from a 100× stock solution in DMEM/M199 medium) of a PARP inhibitor of Formula I as disclosed herein. This process is repeated every 7 days until the cell appear to stop dividing. The untreated (control) cells reach senescence and stop dividing after about 40 days in culture. […] The cells treated with 1 mM 3-AB will still divide after 60 days in culture.

Series [2] has as its system cell viability, glucose metabolism, and DNA synthesis. Particulars: cited from earlier work.
For series [3], the system named is focal cerebral ischemia in male Long-Evans rats. As to the kind of experiment: Focal cerebral ischemia in rats (right distal MCA cauterization with bilateral temporary CCA occlusion), infarct by TTC staining. The format is in vivo, rat. As to the method: Focal cerebral ischemia was produced by cauterization of the right distal MCA (middle cerebral artery) with bilateral temporary common carotid artery occlusion in male Long-Evans rats for 90 minutes. All procedures performed on the animals were approved by the University Institutional Animal Care and Use Committee of the University of Pennsylvania. A total of 42 rats (weights: 230-340 g) obtained from Charles River were used in this study. The animals fasted overnight with free access to water prior to the surgical procedure.
Two hours prior to MCA occlusion, varying amounts (control, n=14; 5 mg/kg, n=7; 10 mg/kg, n=7; 20 mg/kg, n=7; and 40 mg/kg, n=7) of the compound, 3,4-dihydro-5-[4-(1-piperidinyl)-butoxy]-1(2H)-isoquinolinone (“DPQ”) were dissolved in dimethyl sulfoxide (DMSO) using a sonicator. A volume of 1.28 ml/kg of the resulting solution was injected intraperitoneally into […].
Focal cerebral ischemia was produced by cauterization of the distal portion of the right MCA with bilateral temporary common carotid artery (CCA) occlusion by the procedure of Chen et al., “A Model of Focal Ischemic Stroke in the Rat: Reproducible Extensive Cortical Infarction”, Stroke 17:738-43 (1986) and/or Liu et al., “Polyethylene Glycol-conjugated Superoxide Dismutase and Catalase Reduce Ischemic Brain Injury”, Am. J. Physiol. 256:H589-93 (1989), both of which are hereby incorporated by reference. […]
Two hours after MCA occlusion, the animals were given the same doses of the PARP inhibitor as in the pre-treatment. […] To avoid artifacts due to edema, the damaged area was calculated by subtracting the area of the normal tissue in the hemisphere ipsilateral to the stroke from the area of the hemisphere contralateral to the stroke, by the method of Swanson et al., “A Semiautomated Method for Measuring Brain Infarct Volume”, J. Cereb. […] The total volume of infarction was calculated by summation of the damaged volume of the brain slices.

For the next series, the system named is endotoxic shock. Particulars: in vivo; cited from earlier work.

With `NC(=O)C1(C(=O)O)CC=Cc2ccccc21` (centres unmarked) [1-Carboxy-naphthalene-1-carboxamide, 1-carboxynaphthalene-1-carboxamide], the “protection against mortality from septic shock” value in the series on C57/BL male mice is listed as “about 40%”.

With `NC(=O)c1cccc(N)c1` [3-aminobenzamide], the “inflammatory response, morphology and energetic status of the distal colon” value with colitis in rats is “reduced the inflammatory response and restored the morphology and the energetic status of the distal colon”. Further, the “lifespan and proliferative capacity of the cells” value is “little or no effect” in series [1] (10 uM); “lengthen the lifespan of the cells” in series [1] (100 uM); “dramatically increases the lifespan and proliferative capacity of the cells” in series [1] (1 mM). In series [2], the additional metabolic effects result was “shown to affect cell viability, glucose metabolism, and DNA synthesis”.

On to `O=C1NCCc2c(OCCCCN3CCCCC3)cccc21` [DPQ, 3,4-dihydro-5-[4-(1-piperidinyl)-butoxy]-1(2H)-isoquinolinone], for which the “cross-sectional infarct area curve (FIG. 1)” value is “approximately halfway between the control and the 10 mg/kg curves” in series [3] (5 mg/kg); “approximately halfway between the control and the 10 mg/kg curves” in series [3] (20 mg/kg); “close to the control” in series [3] (40 mg/kg).

With `NC(=O)c1ccccc1` [benzamide], the additional metabolic effects entry in series [2] is “shown to affect cell viability, glucose metabolism, and DNA synthesis”.

As to `NC(=O)c1cccnc1` [nicotinamide], the “delayed, NO-mediated vascular failure” value with endotoxic shock was “protects against delayed, NO-mediated vascular failure in endotoxic shock”.
